{"source": "patent US10669272B2", "about": "“Substituted naphthyridinone compounds useful as T cell activators” (BRISTOL-MYERS SQUIBB COMPANY, priority 2018, dated 2020)", "key": {"human DGKα": {"biological_target": "T1, human DGKα (Homo sapiens, UniProt P23743)", "T1 construct": "TVMV protease cleavage site (C); Hexa-His (C); made in house; host or cells: Sf9 insect cells (baculovirus, Bac-to-Bac)", "T1 sequence (P23743 with tags, fused parts or gaps)": "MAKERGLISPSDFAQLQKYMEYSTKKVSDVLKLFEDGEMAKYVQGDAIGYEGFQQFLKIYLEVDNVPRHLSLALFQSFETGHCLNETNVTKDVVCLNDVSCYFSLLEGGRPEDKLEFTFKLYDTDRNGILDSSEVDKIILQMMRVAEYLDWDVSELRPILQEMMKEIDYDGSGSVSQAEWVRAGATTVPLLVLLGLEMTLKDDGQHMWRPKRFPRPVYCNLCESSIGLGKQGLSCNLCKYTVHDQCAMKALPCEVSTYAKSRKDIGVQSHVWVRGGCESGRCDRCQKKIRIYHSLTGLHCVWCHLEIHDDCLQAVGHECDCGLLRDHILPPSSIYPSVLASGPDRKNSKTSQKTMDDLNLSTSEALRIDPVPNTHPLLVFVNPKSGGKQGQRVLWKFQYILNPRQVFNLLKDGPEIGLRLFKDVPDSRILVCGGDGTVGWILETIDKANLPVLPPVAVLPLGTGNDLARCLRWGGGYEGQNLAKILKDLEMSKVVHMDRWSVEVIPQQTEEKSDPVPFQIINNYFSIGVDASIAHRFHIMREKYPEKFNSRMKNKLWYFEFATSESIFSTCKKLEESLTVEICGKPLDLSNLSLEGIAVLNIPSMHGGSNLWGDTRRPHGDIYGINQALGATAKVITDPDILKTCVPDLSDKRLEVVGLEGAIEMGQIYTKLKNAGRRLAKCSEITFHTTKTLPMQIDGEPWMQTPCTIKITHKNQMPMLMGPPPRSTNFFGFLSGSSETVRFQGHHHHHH", "test": "DGKα LIPGLO assay (extruded liposome substrate), in vitro DGK inhibition", "format": "biochemical", "details": "read-out: DGKa LIPGLO IC50"}, "human DGKζ": {"biological_target": "T2, human DGKζ (Homo sapiens, UniProt Q13574)", "T2 construct": "TVMV protease cleavage site (C); Hexa-His (C); made in house; host or cells: Sf9 insect cells (baculovirus, Bac-to-Bac)", "T2 sequence (Q13574 with tags, fused parts or gaps isoform Q13574-4)": "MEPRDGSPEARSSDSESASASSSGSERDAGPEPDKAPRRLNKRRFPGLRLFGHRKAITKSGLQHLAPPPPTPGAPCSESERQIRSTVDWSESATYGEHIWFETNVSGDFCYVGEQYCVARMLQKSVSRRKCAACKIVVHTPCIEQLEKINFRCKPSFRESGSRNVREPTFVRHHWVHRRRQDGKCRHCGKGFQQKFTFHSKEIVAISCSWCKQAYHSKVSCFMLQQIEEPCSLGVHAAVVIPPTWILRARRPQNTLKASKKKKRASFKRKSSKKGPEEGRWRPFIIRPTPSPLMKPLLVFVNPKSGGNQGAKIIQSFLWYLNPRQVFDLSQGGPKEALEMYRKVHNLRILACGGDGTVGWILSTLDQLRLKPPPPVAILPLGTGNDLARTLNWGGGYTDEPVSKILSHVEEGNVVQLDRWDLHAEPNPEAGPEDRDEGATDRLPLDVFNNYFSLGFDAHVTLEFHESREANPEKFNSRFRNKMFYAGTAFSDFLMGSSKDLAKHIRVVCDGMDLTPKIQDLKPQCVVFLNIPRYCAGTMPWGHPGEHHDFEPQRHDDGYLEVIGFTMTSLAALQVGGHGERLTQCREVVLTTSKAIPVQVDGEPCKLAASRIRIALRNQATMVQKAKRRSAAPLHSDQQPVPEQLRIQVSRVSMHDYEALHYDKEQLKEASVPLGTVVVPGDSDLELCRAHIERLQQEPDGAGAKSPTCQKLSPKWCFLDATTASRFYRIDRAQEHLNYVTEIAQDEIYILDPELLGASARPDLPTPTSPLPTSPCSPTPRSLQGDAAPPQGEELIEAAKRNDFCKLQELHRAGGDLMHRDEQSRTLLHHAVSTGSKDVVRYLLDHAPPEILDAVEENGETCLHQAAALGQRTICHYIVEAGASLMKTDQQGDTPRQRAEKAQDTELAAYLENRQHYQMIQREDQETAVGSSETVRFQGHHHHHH", "test": "DGKζ LIPGLO assay (extruded liposome substrate), in vitro DGK inhibition", "format": "biochemical", "details": "read-out: DGKz LIPGLO IC50"}, "naïve human CD8 T cells": {"system": "naïve human CD8 T cells", "test": "Human CD8 T cells IFN-γ assay;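 further: Naïve human CD8 T cells stimulated with plate-bound anti-CD3 and soluble anti-CD28, IFN-γ in supernatant quantified by AlphaLISA and converted to pg/mL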", "format": "cell-based", "details": "read-out: HuCD8 INFG Normalized EC50"}, "Human venous whole blood": {"system": "Human venous whole blood", "test": "Human whole blood IFN-γ assay;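 further: blood from healthy donors exposed to compound for 1 h before stimulation with anti-CD3 and anti-CD28 at 1 µg/mL each, IFN-γ quantified in supernatant by AlphaLISA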", "format": "cell-based", "details": "human whole blood, read-out: INFg Whole Blood Normalized Agonist EC50", "procedure": "Human Whole Blood IFN-γ Assay\nHuman venous whole blood (22.5 μL per well), obtained from healthy donors, was pre-treated with compounds for one hour at 37° C. in a humidified 95% air/5% CO2 incubator. The blood was stimulated with 2.5 μL anti-human CD3 and anti-CD28 mAb at a final concentration of 1 μg/mL each for 24 hours at 37° C. IFN-γ in the supernatants was measured using AlphLISA kit (Cat # AL217)."}, "[1]": {"details": "normalized to 3 μM reference compound with anti-CD3 plus anti-CD28 as 100% activation"}, "[2]": {"details": "Homo sapiens, T-cell, 20 h, normalized to 3 μM reference compound with anti-CD3 plus anti-CD28 as 100% activation"}, "[3]": {"details": "Homo sapiens, 24 h, normalized to 3 μM reference compound with anti-CD3 plus anti-CD28 as 100% activation"}}, "note": "Read-outs that look alike come from different tables or passages of the source.", "data": [{"smiles": "Cc1ccc(C(c2ccc(F)cc2)N2CCN(c3c(C#N)c(=O)n(C)c4ccc(C#N)nc34)C[C@H]2C)nc1", "note": "(single isomer, unassigned) [Example 915]", "values": [{"measurement": "IC50", "setting": "human DGKα; DGKα liposome (LIPGLO) assay", "value": 740, "unit": "nM"}, {"measurement": "IC50", "setting": "human DGKζ; DGKζ liposome (LIPGLO) assay", "value": 1300, "unit": "nM"}, {"measurement": "EC50", "setting": "naïve human CD8 T cells; Homo sapiens, T-cell, 20 h, naïve human CD8 T cells, anti-CD3 plus anti-CD28, 3 μM reference compound = 100% activation", "value": 100, "unit": "nM"}, {"measurement": "EC50", "setting": "Human venous whole blood; anti-CD3 plus anti-CD28, 24 hours, 3 μM reference compound = 100% activation", "value": 550, "unit": "nM"}]}, {"smiles": "CC[C@@H]1CN(c2cc(=O)n(C)c3ccc(C#N)nc23)[C@@H](C)CN1C(c1ccc(F)cc1)c1ccc(C#N)cc1", "note": "(single isomer, unassigned) [Example 1103]", "values": [{"measurement": "IC50", "setting": "human DGKα; liposome (LIPGLO) assay", "value": 250, "unit": "nM"}, {"measurement": "IC50", "setting": "human DGKζ; liposome (LIPGLO) assay", "value": 270, "unit": "nM"}, {"measurement": "EC50", "setting": "naïve human CD8 T cells; [1]", "value": 21, "unit": "nM"}, {"measurement": "EC50", "setting": "Human venous whole blood; [1]", "value": 260, "unit": "nM"}]}, {"smiles": "C[C@@H]1CN(c2cc(=O)n(C)c3ccc(C#N)nc23)[C@@H](C)CN1C(c1ccccc1)c1cccc(Cl)c1", "note": "(stereo partly drawn) [Example 282, 8-[(2S,5R)-4-[(3-chlorophenyl)(phenyl)methyl]-2,5-dimethylpiperazin-1-yl]-5-methyl-6-oxo-5,6-dihydro-1,5-naphthyridine-2-carbonitrile]", "values": [{"measurement": "IC50", "setting": "human DGKα; liposome (LIPGLO) assay", "value": 1200, "unit": "nM"}, {"measurement": "IC50", "setting": "human DGKζ; liposome (LIPGLO) assay", "value": 940, "unit": "nM"}, {"measurement": "EC50", "setting": "naïve human CD8 T cells; [2]", "value": 69, "unit": "nM"}, {"measurement": "EC50", "setting": "Human venous whole blood; [3]", "value": 3800, "unit": "nM"}]}, {"smiles": "C[C@@H]1CN(c2cc(=O)n(C)c3ccc(C#N)nc23)[C@@H](C)CN1Cc1c(Cl)cccc1C#N", "note": "[Example 260, 8-[(2S,5R)-4-[(2-chloro-6-cyanophenyl)methyl]-2,5-dimethylpiperazin-1-yl]-5-methyl-6-oxo-5,6-dihydro-1,5-naphthyridine-2-carbonitrile]", "values": [{"measurement": "IC50", "setting": "human DGKα; liposome (LIPGLO) assay", "value": 3800, "unit": "nM"}, {"measurement": "IC50", "setting": "human DGKζ; liposome (LIPGLO) assay", "value": 1100, "unit": "nM"}, {"measurement": "EC50", "setting": "naïve human CD8 T cells; [2]", "value": 900, "unit": "nM"}, {"measurement": "EC50", "setting": "Human venous whole blood; [3]", "value": 4400, "unit": "nM"}]}, {"smiles": "Cc1ccc(C(c2ccc(Cl)cc2)N2C[C@H](C)N(c3cc(=O)n(C)c4ccc(C#N)nc34)C[C@H]2C)cc1", "note": "(stereo partly drawn) [Example 299, 8-[(2S,5R)-4-[(4-chlorophenyl)(4-methylphenyl)methyl]-2,5-dimethylpiperazin-1-yl]-5-methyl-6-oxo-5,6-dihydro-1,5-naphthyridine-2-carbonitrile]", "values": [{"measurement": "IC50", "setting": "human DGKα; liposome (LIPGLO) assay", "value": 1700, "unit": "nM"}, {"measurement": "IC50", "setting": "human DGKζ; liposome (LIPGLO) assay", "value": 1100, "unit": "nM"}, {"measurement": "EC50", "setting": "naïve human CD8 T cells; [2]", "value": 17, "unit": "nM"}, {"measurement": "EC50", "setting": "Human venous whole blood; [3]", "value": 650, "unit": "nM"}]}, {"smiles": "C[C@@H]1CN(c2cc(=O)n(C)c3ccc(C#N)nc23)[C@@H](C)CN1C(c1ccc(Cl)cc1)c1ccccn1", "note": "(single isomer, unassigned) [Example 381]", "values": [{"measurement": "IC50", "setting": "human DGKα; liposome (LIPGLO) assay", "value": 360, "unit": "nM"}, {"measurement": "IC50", "setting": "human DGKζ; liposome (LIPGLO) assay", "value": 500, "unit": "nM"}, {"measurement": "EC50", "setting": "naïve human CD8 T cells; [2]", "value": 3.9, "unit": "nM"}, {"measurement": "EC50", "setting": "Human venous whole blood; [1]", "value": 180, "unit": "nM"}]}, {"smiles": "C[C@@H]1CN(c2c(F)c(=O)n(C)c3ccc(C#N)nc23)[C@@H](C)CN1C(c1ccc(F)cc1)c1ccc(C#N)cc1", "note": "(stereo partly drawn) [Example 327, 8-((2S,5R)-4-((4-cyanophenyl)(4-fluorophenyl)methyl)-2,5-dimethylpiperazin-1-yl)-7-fluoro-5-methyl-6-oxo-5,6-dihydro-1,5-naphthyridine-2-carbonitrile]", "values": [{"measurement": "IC50", "setting": "human DGKα; liposome (LIPGLO) assay", "value": 3200, "unit": "nM"}, {"measurement": "IC50", "setting": "human DGKζ; liposome (LIPGLO) assay", "value": 4900, "unit": "nM"}, {"measurement": "EC50", "setting": "naïve human CD8 T cells; [1]", "value": 1200, "unit": "nM"}, {"measurement": "EC50", "setting": "Human venous whole blood; [3]", "value": 700, "unit": "nM"}]}, {"smiles": "C[C@@H]1CN(c2cc(=O)n(C)c3ccc(C#N)nc23)[C@@H](C)CN1Cc1cccc(F)c1F", "note": "[Example 286, 8-[(2S,5R)-4-[(2,3-difluorophenyl)methyl]-2,5-dimethylpiperazin-1-yl]-5-methyl-6-oxo-5,6-dihydro-1,5-naphthyridine-2-carbonitrile]", "values": [{"measurement": "IC50", "setting": "human DGKα; liposome (LIPGLO) assay", "value": 1900, "unit": "nM"}, {"measurement": "IC50", "setting": "human DGKζ; liposome (LIPGLO) assay", "value": 3200, "unit": "nM"}, {"measurement": "EC50", "setting": "naïve human CD8 T cells; [2]", "value": 370, "unit": "nM"}, {"measurement": "EC50", "setting": "Human venous whole blood; [3]", "value": 2200, "unit": "nM"}]}, {"smiles": "Cc1ccc(C(c2cccc(F)n2)N2C[C@H](C)N(c3cc(=O)n(C)c4ccc(C#N)nc34)C[C@H]2C)cc1", "note": "(stereo partly drawn) [Example 476, 8-((2S,5R)-4-((6-fluoropyridin-2-yl)(p-tolyl)methyl)-2,5-dimethylpiperazin-1-yl)-5-methyl-6-oxo-5,6-dihydro-1,5-naphthyridine-2-carbonitrile]", "values": [{"measurement": "IC50", "setting": "human DGKα; liposome (LIPGLO) assay", "value": 940, "unit": "nM"}, {"measurement": "IC50", "setting": "human DGKζ; liposome (LIPGLO) assay", "value": 300, "unit": "nM"}, {"measurement": "EC50", "setting": "naïve human CD8 T cells; [2]", "value": 160, "unit": "nM"}, {"measurement": "EC50", "setting": "Human venous whole blood; [3]", "value": 630, "unit": "nM"}]}, {"smiles": "CCc1cc(F)ccc1C(c1ccc(F)cc1)N1C[C@H](C)N(c2cc(=O)n(C)c3ccc(C#N)nc23)C[C@H]1C", "note": "(single isomer, unassigned) [Example 227]", "values": [{"measurement": "IC50", "setting": "human DGKα; liposome (LIPGLO) assay", "value": "> 250000", "unit": "nM"}, {"measurement": "IC50", "setting": "human DGKζ; liposome (LIPGLO) assay", "value": 1000, "unit": "nM"}, {"measurement": "EC50", "setting": "naïve human CD8 T cells; [2]", "value": 16, "unit": "nM"}, {"measurement": "EC50", "setting": "Human venous whole blood; [1]", "value": 13000, "unit": "nM"}]}]}
